# Measurements reported in publication PMC7180948, “New Insights into 4-Anilinoquinazolines as Inhibitors of Cardiac Troponin I–Interacting Kinase (TNNi3K)” (Molecules, 2020).
# Assays:
# Assay in all cases: biochemical
# Parameters in all cases: KINOMEscan competition binding panel (Eurofins DiscoverX), single concentration, % inhibition
# Details in all cases: read-out: 7 at 1 µM % inhibition
# [1] = molecular target: NEK3 (Homo sapiens, UniProt P51956)
# How it was run: (§1)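 Values come from single-concentration (1 µM) profiling in the Eurofins DiscoverX KINOMEscan competition-binding platform, which covers over 400 kinases.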
# [2] = molecular target: SLK (Homo sapiens, UniProt Q9H2G2)
# How it was run: as §1
# [3] = molecular target: GRK3 (Homo sapiens, UniProt P35626)
# How it was run: as §1
# [4] = molecular target: PIM2 (Homo sapiens, UniProt Q9P1W9)
# How it was run: as §1
# [5] = molecular target: EGFR(L858R,T790M) (Homo sapiens, UniProt P00533, L858R/T790M)
# How it was run: as §1
# [6] = molecular target: T1, CDC2L5 (Homo sapiens, UniProt Q14004)
# T1 construct: gene CDK13
# How it was run: as §1
# [7] = molecular target: SNRK (Homo sapiens, UniProt Q9NRH2)
# How it was run: as §1
# [8] = molecular target: T2, p38-alpha (Homo sapiens, UniProt Q16539)
# T2 construct: gene MAPK14
# How it was run: as §1
# [9] = molecular target: GRK7 (Homo sapiens, UniProt Q8WTQ7)
# How it was run: as §1
# [10] = molecular target: T3, ARK5 (Homo sapiens, UniProt O60285)
# T3 construct: gene NUAK1
# How it was run: as §1
# [11] = molecular target: EGFR(T790M) (Homo sapiens, UniProt P00533, T790M)
# How it was run: as §1
# [12] = molecular target: T4, RSK1(Kin.Dom.1-N-terminal) (Homo sapiens, UniProt Q15418)
# T4 construct: gene RPS6KA1; Kin.Dom.1-N-terminal
# How it was run: as §1
# [13] = molecular target: PAK6 (Homo sapiens, UniProt Q9NQU5)
# How it was run: as §1
# [14] = molecular target: T5, YANK1 (Homo sapiens, UniProt Q8WU08)
# T5 construct: gene STK32A
# How it was run: as §1
# [15] = molecular target: T6, ABL1(F317I)-nonphosphorylated (Homo sapiens, UniProt P00519, F317I)
# T6 construct: nonphosphorylated
# How it was run: as §1
# [16] = molecular target: MAST1 (Homo sapiens, UniProt Q9Y2H9)
# How it was run: as §1
# [17] = molecular target: T7, CDC2L2 (Homo sapiens, UniProt Q9UQ88)
# T7 construct: gene CDK11A
# How it was run: as §1
# [18] = molecular target: HIPK2 (Homo sapiens, UniProt Q9H2X6)
# How it was run: as §1
# [19] = molecular target: TAOK2 (Homo sapiens, UniProt Q9UL54)
# How it was run: as §1
# [20] = molecular target: ERBB2 (Homo sapiens, UniProt P04626)
# How it was run: as §1
# [21] = molecular target: BMPR1A (Homo sapiens, UniProt P36894)
# How it was run: as §1
# [22] = molecular target: PIK3CA(E545K) (Homo sapiens, UniProt P42336, E545K)
# How it was run: as §1
# [23] = molecular target: FGFR3(G697C) (Homo sapiens, UniProt P22607, G697C)
# How it was run: as §1
# [24] = molecular target: WNK1 (Homo sapiens, UniProt Q9H4A3)
# How it was run: as §1
# Sequence of SNRK (Q9NRH2 whole entry): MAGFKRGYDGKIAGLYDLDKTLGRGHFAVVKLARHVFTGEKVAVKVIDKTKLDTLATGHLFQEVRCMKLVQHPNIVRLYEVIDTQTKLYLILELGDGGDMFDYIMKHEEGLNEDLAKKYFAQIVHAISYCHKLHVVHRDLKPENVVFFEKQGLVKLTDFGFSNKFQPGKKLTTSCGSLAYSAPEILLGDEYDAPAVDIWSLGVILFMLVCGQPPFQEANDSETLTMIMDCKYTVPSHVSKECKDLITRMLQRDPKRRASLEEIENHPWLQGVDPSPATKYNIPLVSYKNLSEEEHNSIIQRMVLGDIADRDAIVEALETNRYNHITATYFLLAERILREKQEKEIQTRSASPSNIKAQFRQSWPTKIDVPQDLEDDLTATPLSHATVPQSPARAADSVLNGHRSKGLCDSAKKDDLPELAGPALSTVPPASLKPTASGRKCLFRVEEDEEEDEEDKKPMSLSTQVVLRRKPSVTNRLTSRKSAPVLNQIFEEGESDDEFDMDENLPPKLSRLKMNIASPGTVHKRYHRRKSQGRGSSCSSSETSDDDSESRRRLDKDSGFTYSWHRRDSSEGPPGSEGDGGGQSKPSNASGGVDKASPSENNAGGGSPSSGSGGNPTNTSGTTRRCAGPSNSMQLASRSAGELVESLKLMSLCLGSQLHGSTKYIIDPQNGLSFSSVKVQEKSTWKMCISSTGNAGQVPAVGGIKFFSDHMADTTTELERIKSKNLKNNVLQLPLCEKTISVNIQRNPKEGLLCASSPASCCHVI
# Sequence of PIM2 (Q9P1W9 whole entry): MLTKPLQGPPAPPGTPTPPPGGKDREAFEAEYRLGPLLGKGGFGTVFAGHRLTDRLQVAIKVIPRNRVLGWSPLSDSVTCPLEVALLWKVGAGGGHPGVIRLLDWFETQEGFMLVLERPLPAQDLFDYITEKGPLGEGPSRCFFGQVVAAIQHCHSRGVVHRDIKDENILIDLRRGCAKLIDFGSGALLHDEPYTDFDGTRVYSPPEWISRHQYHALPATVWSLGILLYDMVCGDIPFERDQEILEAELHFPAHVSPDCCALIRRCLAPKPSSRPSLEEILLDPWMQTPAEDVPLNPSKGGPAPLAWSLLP
# Sequence of PAK6 (Q9NQU5 whole entry): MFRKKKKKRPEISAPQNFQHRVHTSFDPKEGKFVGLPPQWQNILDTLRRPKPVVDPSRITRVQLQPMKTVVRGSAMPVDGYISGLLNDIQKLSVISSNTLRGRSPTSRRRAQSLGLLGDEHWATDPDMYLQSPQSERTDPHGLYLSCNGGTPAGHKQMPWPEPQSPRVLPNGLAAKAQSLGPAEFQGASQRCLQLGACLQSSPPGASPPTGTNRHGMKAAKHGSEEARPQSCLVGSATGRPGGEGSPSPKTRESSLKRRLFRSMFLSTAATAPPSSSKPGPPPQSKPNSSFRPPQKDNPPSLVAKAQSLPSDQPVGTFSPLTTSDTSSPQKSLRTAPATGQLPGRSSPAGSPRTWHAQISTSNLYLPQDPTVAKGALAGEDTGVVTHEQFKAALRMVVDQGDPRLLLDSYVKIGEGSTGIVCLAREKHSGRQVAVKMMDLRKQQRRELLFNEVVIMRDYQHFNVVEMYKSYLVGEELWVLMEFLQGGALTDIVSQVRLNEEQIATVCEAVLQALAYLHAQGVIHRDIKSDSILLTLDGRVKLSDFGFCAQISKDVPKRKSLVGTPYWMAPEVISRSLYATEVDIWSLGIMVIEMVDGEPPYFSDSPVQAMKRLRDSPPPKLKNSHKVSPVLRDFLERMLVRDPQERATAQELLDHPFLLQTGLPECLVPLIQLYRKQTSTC
# T6 sequence (P00519 whole entry F317I): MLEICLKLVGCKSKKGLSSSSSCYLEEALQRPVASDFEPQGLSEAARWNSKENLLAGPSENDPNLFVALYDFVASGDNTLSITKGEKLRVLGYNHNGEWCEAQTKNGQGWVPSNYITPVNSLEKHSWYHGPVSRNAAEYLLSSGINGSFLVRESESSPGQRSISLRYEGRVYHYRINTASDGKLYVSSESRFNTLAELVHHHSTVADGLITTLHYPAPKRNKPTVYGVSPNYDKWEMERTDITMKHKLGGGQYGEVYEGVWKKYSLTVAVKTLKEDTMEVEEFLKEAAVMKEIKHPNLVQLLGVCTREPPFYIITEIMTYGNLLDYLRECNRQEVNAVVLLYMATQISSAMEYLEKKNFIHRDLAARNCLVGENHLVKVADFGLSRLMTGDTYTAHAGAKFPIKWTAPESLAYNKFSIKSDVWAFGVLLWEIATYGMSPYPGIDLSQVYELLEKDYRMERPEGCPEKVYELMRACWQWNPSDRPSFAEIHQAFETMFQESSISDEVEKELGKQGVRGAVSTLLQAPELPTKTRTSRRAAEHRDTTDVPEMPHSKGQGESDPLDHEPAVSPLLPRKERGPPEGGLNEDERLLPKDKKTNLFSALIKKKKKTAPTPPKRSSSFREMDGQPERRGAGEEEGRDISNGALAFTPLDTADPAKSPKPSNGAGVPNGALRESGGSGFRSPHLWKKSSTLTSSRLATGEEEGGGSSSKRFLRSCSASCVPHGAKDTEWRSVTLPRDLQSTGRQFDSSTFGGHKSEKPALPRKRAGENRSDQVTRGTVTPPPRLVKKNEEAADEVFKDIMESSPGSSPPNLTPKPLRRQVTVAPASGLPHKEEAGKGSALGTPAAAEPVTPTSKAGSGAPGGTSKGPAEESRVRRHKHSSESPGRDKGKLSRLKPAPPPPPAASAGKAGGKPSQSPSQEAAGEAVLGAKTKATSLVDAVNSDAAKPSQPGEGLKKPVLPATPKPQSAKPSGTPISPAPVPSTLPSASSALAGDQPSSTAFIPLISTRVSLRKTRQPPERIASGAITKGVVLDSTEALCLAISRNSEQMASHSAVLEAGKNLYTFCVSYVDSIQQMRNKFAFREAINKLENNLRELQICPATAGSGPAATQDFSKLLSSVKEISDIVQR
# Sequence of SLK (Q9H2G2 whole entry): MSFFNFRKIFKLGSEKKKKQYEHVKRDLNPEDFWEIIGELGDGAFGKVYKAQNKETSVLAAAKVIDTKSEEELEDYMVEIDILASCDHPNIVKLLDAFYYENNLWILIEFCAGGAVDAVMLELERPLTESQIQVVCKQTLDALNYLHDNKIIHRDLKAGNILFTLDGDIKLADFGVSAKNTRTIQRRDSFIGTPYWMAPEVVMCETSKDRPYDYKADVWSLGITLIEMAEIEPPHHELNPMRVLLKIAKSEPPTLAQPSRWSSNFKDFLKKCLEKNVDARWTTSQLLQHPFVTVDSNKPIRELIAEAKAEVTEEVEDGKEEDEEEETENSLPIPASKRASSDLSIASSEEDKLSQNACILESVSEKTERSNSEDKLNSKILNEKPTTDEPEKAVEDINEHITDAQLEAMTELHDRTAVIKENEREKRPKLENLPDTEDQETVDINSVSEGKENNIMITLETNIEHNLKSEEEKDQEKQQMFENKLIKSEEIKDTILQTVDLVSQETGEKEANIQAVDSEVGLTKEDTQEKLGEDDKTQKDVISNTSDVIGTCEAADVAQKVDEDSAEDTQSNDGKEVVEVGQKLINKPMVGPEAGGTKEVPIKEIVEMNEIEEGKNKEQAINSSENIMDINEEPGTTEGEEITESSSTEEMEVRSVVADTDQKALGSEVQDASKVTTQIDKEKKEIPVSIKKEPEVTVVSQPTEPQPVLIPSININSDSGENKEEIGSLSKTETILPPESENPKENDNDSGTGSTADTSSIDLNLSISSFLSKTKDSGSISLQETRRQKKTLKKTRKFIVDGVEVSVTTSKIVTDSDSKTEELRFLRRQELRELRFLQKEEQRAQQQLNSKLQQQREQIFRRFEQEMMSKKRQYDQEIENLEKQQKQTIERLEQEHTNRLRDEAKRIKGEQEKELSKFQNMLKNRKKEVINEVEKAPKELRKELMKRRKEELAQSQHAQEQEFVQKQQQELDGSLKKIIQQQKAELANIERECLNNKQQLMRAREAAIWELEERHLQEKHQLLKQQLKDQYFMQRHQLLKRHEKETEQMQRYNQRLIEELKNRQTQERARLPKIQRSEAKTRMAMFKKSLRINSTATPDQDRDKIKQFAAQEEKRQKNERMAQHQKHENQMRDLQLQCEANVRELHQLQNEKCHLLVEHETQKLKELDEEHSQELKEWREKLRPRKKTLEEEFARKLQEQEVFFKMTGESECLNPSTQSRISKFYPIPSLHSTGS
# T4 sequence (Q15418 whole entry): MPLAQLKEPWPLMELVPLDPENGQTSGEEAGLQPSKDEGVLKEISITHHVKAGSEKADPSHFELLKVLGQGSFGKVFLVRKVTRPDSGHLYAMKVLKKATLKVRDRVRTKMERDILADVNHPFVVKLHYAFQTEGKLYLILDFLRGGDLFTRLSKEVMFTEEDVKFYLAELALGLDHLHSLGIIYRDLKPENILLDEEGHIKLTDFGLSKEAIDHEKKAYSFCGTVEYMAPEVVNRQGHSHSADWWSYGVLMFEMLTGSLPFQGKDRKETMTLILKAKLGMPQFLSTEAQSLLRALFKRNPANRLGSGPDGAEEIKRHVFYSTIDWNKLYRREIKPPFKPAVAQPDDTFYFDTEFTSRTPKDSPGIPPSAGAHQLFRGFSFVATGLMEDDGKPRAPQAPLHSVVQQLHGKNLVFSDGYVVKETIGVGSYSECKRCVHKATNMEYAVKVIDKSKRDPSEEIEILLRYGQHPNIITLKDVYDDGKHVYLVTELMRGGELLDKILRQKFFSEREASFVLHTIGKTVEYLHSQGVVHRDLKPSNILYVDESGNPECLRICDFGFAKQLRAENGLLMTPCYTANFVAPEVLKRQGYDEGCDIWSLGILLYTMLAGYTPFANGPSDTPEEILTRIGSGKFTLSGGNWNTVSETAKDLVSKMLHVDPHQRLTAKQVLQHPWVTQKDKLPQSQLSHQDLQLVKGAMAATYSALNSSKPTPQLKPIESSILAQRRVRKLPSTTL
structure (smiles),measurement,setting,value
"CNS(=O)(=O)c1ccc(N(C)C)c(Nc2ncnc3cc(OC)c(OC)cc23)c1 [compound 7, 3-((6,7-dimethoxyquinazolin-4-yl)amino)-4-(dimethylamino)-N-methylbenzenesulfonamide]",inhibition at 1 µM,[1],0%
same,inhibition at 1 µM,[2],0%
same,inhibition at 1 µM,[3],38%
same,inhibition at 1 µM,[4],0%
same,inhibition at 1 µM,[5],7%
same,inhibition at 1 µM,[6],0%
same,inhibition at 1 µM,[7],14%
same,inhibition at 1 µM,[8],0%
same,inhibition at 1 µM,[9],23%
same,inhibition at 1 µM,[10],0%
same,inhibition at 1 µM,[11],25%
same,inhibition at 1 µM,[12],2%
same,inhibition at 1 µM,[13],7%
same,inhibition at 1 µM,[14],17%
same,inhibition at 1 µM,[15],1%
same,inhibition at 1 µM,[16],10%
same,inhibition at 1 µM,[17],0%
same,inhibition at 1 µM,[18],0%
same,inhibition at 1 µM,[19],20%
same,inhibition at 1 µM,[20],0%
same,inhibition at 1 µM,[21],0%
same,inhibition at 1 µM,[22],5%
same,inhibition at 1 µM,[23],0%
same,inhibition at 1 µM,[24],62%
